Test results taken from US6479491B1, “Disubstituted morpholine, oxazepine or thiazepine derivatives, their preparation and their use as dopamine d4 receptor antagonists” (Neurosearch A/S, priority 1996, dated 2002).
Where a name gives a salt, the structure may show the parent alone.

Assays:
D2 dopamine Receptors = biological target: T1, D2 dopamine Receptors (Rattus norvegicus, UniProt P61169); assay: In vitro inhibition of 3H-spiperone binding to D2 dopamine receptors; details: for IC50: IC50 for inhibition of specific 3H-spiperone (0.2 nM) binding, corpus striatum of male Wistar rats
T1 construct: Corpus Striatum from male Wistar rats (150-200 g) is homogenized; from tissue; host or cells: rat corpus striatum
Protocol: I) In vitro Inhibition of ^3H-spiperone Binding to D2 dopamine Receptors
Tissue preparation: Preparations are performed at 0-4° C. unless otherwise indicated. Corpus Striatum from male Wistar rats (150-200 g) is homogenized for 5-10 sec in 10 ml KH2PO4 (50 mM, pH 7.4) using an Ultra-Turrax homogenizer. The suspension is centrifuged at 27,000×g for 15 min. The supematant is discarded and the pellet is resuspended in 50 mM KH2PO4, pH 7.4 (2000 ml per g of original tissue) and used for binding assays.
Assay: Aliquots of 0.5 ml tissue are added to 25 μl of test solution and 25 μl of ^3H-spiperone (0.2 nM, final concentration), mixed and incubated for 20 min at 37° C. Non-specific binding is determined using butadamol (1 μM, final concentration). After incubation the samples are placed on ice for 10 min. The assay is terminated by addition of 5 ml of ice-cold buffer and poured directly onto Whatman GF/C glass fibre filters (presoaked in 0.1% PEI for at least 20 min) under suction and immediately washed with 5 ml ice-cold buffer. The amount of radioactivity on the filters is determined by conventional liquid scintillation counting. Specific binding is total binding minus non-specific binding.

[1] = biological target: T2, D4.2 Dopamine Receptors (Human Recombinant) (Homo sapiens, UniProt P21917, DEL265-296); assay: In vitro inhibition of 3H-spiperone binding to D4.2 dopamine receptors (human recombinant); details: for IC50: IC50 for inhibition of specific 3H-spiperone (0.5 nM) binding, membranes of CHO cells transfected with human recombinant D4.2 receptor
T2 construct: purchased RBI D-195; host or cells: Chinese Hamster Ovary (CHO) cells, transfected; supplied as frozen membranes
T2 sequence (P21917 with tags, fused parts or gaps DEL265-296): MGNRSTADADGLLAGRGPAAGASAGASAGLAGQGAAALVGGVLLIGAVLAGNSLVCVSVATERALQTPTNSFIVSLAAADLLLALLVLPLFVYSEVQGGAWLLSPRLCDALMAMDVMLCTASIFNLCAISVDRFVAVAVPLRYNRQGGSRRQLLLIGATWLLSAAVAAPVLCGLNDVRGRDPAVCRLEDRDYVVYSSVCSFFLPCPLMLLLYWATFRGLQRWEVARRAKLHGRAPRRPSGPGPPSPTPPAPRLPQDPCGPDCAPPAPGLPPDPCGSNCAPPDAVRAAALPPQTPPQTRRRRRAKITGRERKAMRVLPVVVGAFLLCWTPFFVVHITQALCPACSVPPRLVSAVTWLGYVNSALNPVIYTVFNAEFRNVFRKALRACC
Protocol: II) In Vitro Inhibition of ^3H-spiperone Binding to D4.2 Dopamine Receptors (Human Recombinant)
Membranes are suspended in 10 mM Tris-HCl (pH 7.2) containing 2 mM EDTA, and stored tightly sealed at −80° C.
Asssay: The membranes are thawed and diluted in incubation buffer (50 mM Tns-HCl, pH 7.4, containing 120 mM NaCl, 5 mM KCl, 5 mM MgCl2 and 1 mM EDTA) —0.25 ml of membranes to 4.75 ml of incubation buffer. Aliquots of 100 μl of diluted membranes are added to 100 μl of test solution and 50 μl of ^3H-spiperone (0.5nM, final concentration). Finally, 750 μl incubation buffer is added and the assay mixture is incubated for 60 min at 25° C. Non-specific binding is determined using haloperidol (1 μM, final concentration). After incubation the assay is terminated by rapid filtration over GF/C glass fibre filters (presoaked in 0.1% PEI for at least 20 min), then washed twice with 5 ml ice cold 50 mM Tris-HCl in 0.9% NaCl at pH 7.4. The amount of radioactivity on the filters is determined by conventional liquid scintillation counting. Specific binding is total binding minus non-specific binding.

T1 sequence (P61169 whole entry): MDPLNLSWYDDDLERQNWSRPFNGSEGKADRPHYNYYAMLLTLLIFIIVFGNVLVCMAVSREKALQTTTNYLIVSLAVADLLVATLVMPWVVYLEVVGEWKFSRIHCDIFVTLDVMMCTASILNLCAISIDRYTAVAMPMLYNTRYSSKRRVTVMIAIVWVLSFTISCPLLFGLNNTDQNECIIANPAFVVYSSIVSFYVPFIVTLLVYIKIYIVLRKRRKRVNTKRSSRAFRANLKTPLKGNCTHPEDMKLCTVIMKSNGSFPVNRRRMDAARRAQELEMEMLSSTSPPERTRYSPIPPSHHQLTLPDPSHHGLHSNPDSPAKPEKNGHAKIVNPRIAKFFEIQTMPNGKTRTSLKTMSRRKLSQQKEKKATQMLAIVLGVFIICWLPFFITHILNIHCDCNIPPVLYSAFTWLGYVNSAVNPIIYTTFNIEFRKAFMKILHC

melting point	affinity for dopamine D2 receptors (in words) (D2 dopamine Receptors; qualitative statement)	affinity for dopamine D4 receptors (in words) ([1]; qualitative statement)	SMILES	IC50 (D2 dopamine Receptors)	IC50 [1]
80 to 110 °C	–	–	COc1ccc(N)cc1OCC1CN(Cc2ccc(Cl)cc2)CCO1.O=C(O)C(=O)O (racemic)	–	–
–	–	–	COc1cc(Cl)ccc1OCC1CN(Cc2ccc(Cl)cc2)CCCO1 (racemic) [(±)-2-[(4-chloro-2-methoxyphenoxy)methyl]-4-(4-chlorobenzyl)perhydro oxazepine oxalic acid salt]	> 10 µM	2.5 nM
–	–	–	COc1cc(Cl)ccc1OCC1CN(Cc2ccc(Cl)cc2)CCO1 (racemic) [(±)-4-(4-Chlorobenzyl)-2-[(4-chloro-2-methoxyphenoxy)methyl]morpholine oxalic acid salt]	> 10 µM	4 nM
–	no or only low affinity	no or only low affinity	CCOc1ccccc1OCC1CNCCO1 (stereo not shown) [Viloxazine, 2-[(2-ethoxy-phenoxy)methyl]morpholine, reference compound]	–	–
